Our source for the TGI and GI50 values is PubChem BioAssay (NCI).

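Dose response: 5 concentrations. Exposure: 48 h. Format: 96-well plates. Endpoint: linear interpolation; highest concentration if not reached. Here, GI50 denotes the concentration required for 50% inhibition of growth. TGI marks complete inhibition of growth.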

Test systems include SK-OV-3 ovarian; OVCAR-3 ovarian; CAKI-1 renal; 786-0 renal; MCF7 breast; KM12 colon; COLO 205 colon; SK-MEL-28 melanoma; UO-31 renal; OVCAR-4 ovarian.
What all share (test): NCI-60 cell line screen, 48 h

Take `O=C(O)c1nc(-c2ccccc2)ncc1-c1nnnn1-c1ccccc1`: the TGI with SK-OV-3 ovarian, in the assay with OVCAR-3 ovarian, in the assay on CAKI-1 renal, with 786-0 renal, in the assay with MCF7 breast and with KM12 colon was greater than 100 µM throughout. The TGI in the assay on COLO 205 colon, in the assay with SK-MEL-28 melanoma and in the assay with UO-31 renal was greater than 100 µM in each case.
Regarding `O=C(OC(=O)n1ccc2ccccc21)n1ccc2ccccc21`, the TGI in the assay with SK-OV-3 ovarian, in the assay with OVCAR-4 ovarian, in the assay with OVCAR-3 ovarian, in the assay on CAKI-1 renal, with MCF7 breast and in the assay on KM12 colon was greater than 100 µM throughout. Besides, the TGI with COLO 205 colon, in the assay on SK-MEL-28 melanoma and in the assay with UO-31 renal was greater than 100 µM throughout.
On to `Cc1nc2ccccc2c(=O)n1NC(=O)c1ccc(CS)cc1`, for which the TGI is 78 µM in the assay on SK-OV-3 ovarian; greater than 100 µM with OVCAR-4 ovarian; 30.6 µM in the assay with OVCAR-3 ovarian; 23.6 µM in the assay with 786-0 renal; 26.2 µM in the assay on MCF7 breast; 63.7 µM in the assay on KM12 colon. For the same molecule, the figures for the TGI with COLO 205 colon, in the assay on SK-MEL-28 melanoma and in the assay with UO-31 renal were 62.9 µM, 28.8 µM and 29.9 µM, respectively.
For `COC(=O)C(C)(NC(=O)C(CC(=O)OC(C)(C)C)NC(=O)OC(C)(C)C)c1ccccc1` (stereo unspecified), the TGI in the assay on SK-OV-3 ovarian, in the assay with OVCAR-3 ovarian, in the assay on CAKI-1 renal, in the assay on 786-0 renal, with MCF7 breast and with KM12 colon was greater than 100 µM in each case. The TGI in the assay on COLO 205 colon, in the assay on SK-MEL-28 melanoma and in the assay with UO-31 renal was greater than 100 µM throughout.
With `CCCCCN=Cc1c(O)c(O)c(C(C)C)c2cc(C)c(-c3c(C)cc4c(C(C)C)c(O)c(O)c(C=NCCCCC)c4c3O)c(O)c12`, the TGI is 39.7 µM with SK-OV-3 ovarian; 65 µM in the assay with OVCAR-3 ovarian; 97.6 µM with CAKI-1 renal; greater than 100 µM with 786-0 renal; 27.2 µM with MCF7 breast; 19.8 µM in the assay with KM12 colon. For the same molecule, the TGI in the assay on COLO 205 colon was found to be 9.15 µM; in the assay on SK-MEL-28 melanoma, 26.5 µM; in the assay on UO-31 renal, 41.1 µM.
As to `C=C1CC(c2ccc(OCCCN3C(=O)c4ccccc4C3=O)c(OC)c2)OC1=O` (stereo unspecified), the TGI in the assay with SK-OV-3 ovarian amounted to 29.4 µM; in the assay on OVCAR-3 ovarian it was 8.96 µM; in the assay on CAKI-1 renal, 5.16 µM; with 786-0 renal, 14.6 µM; in the assay on MCF7 breast it was 0.48 µM; in the assay with KM12 colon, 28.2 µM. Further, the figures for the TGI in the assay with COLO 205 colon, in the assay with SK-MEL-28 melanoma and with UO-31 renal were 5.33 µM, 9.34 µM and 7.8 µM, respectively.
In the case of `CC1CC(N)=Nc2ccccc2N1` (stereo unspecified), the TGI in the assay with SK-OV-3 ovarian, in the assay on OVCAR-4 ovarian, in the assay with OVCAR-3 ovarian, in the assay with CAKI-1 renal, with 786-0 renal and in the assay with KM12 colon was greater than 100 µM each time. Further, the TGI in the assay on COLO 205 colon, with SK-MEL-28 melanoma and in the assay with UO-31 renal was greater than 100 µM in each case.
Regarding `COc1ccc(N=C2SC(=N/N=c3\sc4ccccc4n3C)SC2=Nc2ccc(OC)cc2)cc1`, the TGI with SK-OV-3 ovarian, in the assay on OVCAR-3 ovarian, with CAKI-1 renal, with 786-0 renal, in the assay with MCF7 breast and in the assay on KM12 colon was greater than 100 µM throughout. Besides, the TGI in the assay with COLO 205 colon, in the assay with SK-MEL-28 melanoma and with UO-31 renal was greater than 100 µM each time.
With `Cc1nc(N)sc1-c1ccnc(Nc2ccc(N3CCOCC3)cc2)n1`, the GI50 with SK-OV-3 ovarian was 2.62 µM; in the assay on OVCAR-4 ovarian it was greater than 21.7 µM; with OVCAR-3 ovarian, 7.37 µM; with CAKI-1 renal it was 0.517 µM; in the assay on MCF7 breast, 1.43 µM; in the assay with KM12 colon, 1.59 µM. The GI50 in the assay on COLO 205 colon is 0.488 µM; in the assay on SK-MEL-28 melanoma it was 4.22 µM; in the assay on UO-31 renal, 1.28 µM. The TGI is greater than 100 µM in the assay with SK-OV-3 ovarian; greater than 100 µM with OVCAR-4 ovarian; greater than 100 µM with OVCAR-3 ovarian; 3.05 µM with CAKI-1 renal; greater than 100 µM in the assay with MCF7 breast; greater than 100 µM with KM12 colon. Besides, the TGI with COLO 205 colon was greater than 100 µM; in the assay on SK-MEL-28 melanoma it was greater than 100 µM; with UO-31 renal it was greater than 51.1 µM.
In the case of `Cc1ccc(/C=N/n2c(=O)[nH]c3ccccc3c2=O)cc1`, the TGI with SK-OV-3 ovarian, in the assay on OVCAR-3 ovarian, in the assay with CAKI-1 renal, in the assay with 786-0 renal, in the assay with MCF7 breast and in the assay on KM12 colon was greater than 100 µM each time. Also, the TGI in the assay with COLO 205 colon, in the assay on SK-MEL-28 melanoma and in the assay with UO-31 renal was greater than 100 µM in each case.
`S=C(NCc1ccccc1)c1nc[nH]c1C(=S)NCc1ccccc1`: the TGI in the assay with SK-OV-3 ovarian came out at 28.5 µM; in the assay on OVCAR-4 ovarian it was 20 µM; in the assay with OVCAR-3 ovarian it was 18.8 µM; with CAKI-1 renal, 18.7 µM; in the assay on 786-0 renal, 18.8 µM; in the assay with KM12 colon it was 20 µM. Moreover, the results for the TGI in the assay with COLO 205 colon and in the assay with SK-MEL-28 melanoma were 12.9 µM and 26.9 µM, respectively.
As for `CNc1ccc(OC)cc1S(=O)(=O)c1ccccc1[N+](=O)[O-]`, the TGI with SK-OV-3 ovarian, in the assay with OVCAR-4 ovarian, with OVCAR-3 ovarian, in the assay on 786-0 renal, with MCF7 breast and with COLO 205 colon was greater than 100 µM each time. Further, the TGI in the assay with SK-MEL-28 melanoma and with UO-31 renal was greater than 100 µM throughout.
With `Cc1ccc(S(=O)(=O)Oc2cc(-c3ccccc3)nc3ccccc23)cc1`, the TGI is 5.23 µM with SK-OV-3 ovarian; 16.2 µM with OVCAR-4 ovarian; 5.73 µM with OVCAR-3 ovarian; greater than 48.4 µM with MCF7 breast; greater than 43.5 µM in the assay with KM12 colon; 1.18 µM in the assay with COLO 205 colon. Besides, the TGI turned out to be 68.7 µM in the assay with SK-MEL-28 melanoma and 35.6 µM with UO-31 renal.
Regarding `CC(=O)OCCn1cnc2nc(Nc3ccccc3)nc(Cl)c21`, the TGI in the assay with SK-OV-3 ovarian, in the assay with OVCAR-4 ovarian, in the assay with OVCAR-3 ovarian, in the assay with 786-0 renal, with MCF7 breast and with KM12 colon was greater than 100 µM in each case. Further, the TGI is 88.1 µM with COLO 205 colon and greater than 100 µM in the assay with SK-MEL-28 melanoma.
